≈ marks a conversion by molar mass, not a printed value.

Among the data in ChEMBL document CHEMBL1144748, “N-D-aldopentofuranosyl-N'-[p-(isoamyloxy)phenyl]-thiourea derivatives: potential anti-TB therapeutic agents” (2008) are MIC values, retold here.

The assay has as its system Mycobacterium tuberculosis. The experiment in a line: Antimycobacterial activity against Mycobacterium tuberculosis H37Rv by microplate alamar blue assay. The format is functional. Background: Alamar Blue is a resazurin reagent that responds to reducing activity.
For orientation: MIC means the lowest concentration that inhibits growth of the organism. Low readings indicate inhibition by little substance, high ones a need for much substance. Take `CC(C)CCOc1ccc(NC(=S)NC2O[C@H](CO)[C@H](O)[C@H]2O)cc1` (stereo not given in full): the MIC was 6.25 µg/mL (≈ 16.9 µM).

`CC(C)CCOc1ccc(NC(=S)NC2O[C@H](CO)[C@@H](O)[C@@H]2O)cc1` (stereo not given in full) registered an MIC of 1.56 µg/mL (≈ 4.21 µM).

Take `CC(C)CCOc1ccc(NC(=S)NC2O[C@H](CO)[C@@H](O)[C@H]2O)cc1` (stereo not given in full): 3.12 µg/mL (≈ 8.44 µM) was the least that counted as inhibitory (MIC). The same measure for `CC(C)CCOc1ccc(NC(=S)NC2O[C@H](CO)[C@H](O)[C@@H]2O)cc1` (stereo not given in full): 50 µg/mL (≈ 135 µM); for `CC(C)CCOc1ccc(NC(=S)Nc2ccc(OCCC(C)C)cc2)cc1` [TIOCARLIDE]: 2.5 µg/mL (≈ 6.24 µM).
